# Laboratory results: patent publication US11666547B2, “Methods for treating cognitive deficits in a subject having schizophrenia, bipolar disorder, or psychiatric depression, and exhibiting cognitive deficits by administering an antagonist of the Na+-K+-2Cl-cation-chloride cotransporter isoform 1 (NKCC1)” (NORTHWESTERN UNIVERSITY, priority 2019, dated 2023)
# Legend:
# [1] = test system: pyramidal neurons of the infralimbic cortex (ILC) of scPCP mice; assay: GABAA reversal potential (EGABA), perforated patch recordings in acute mPFC slices; type: cell-based; conditions: bumetanide 0.3 mg/kg ip 30-40 min before dissection, 10 uM perfused into mPFC slice in incubation and recording chambers
# Procedure: FIG. 4. (A) Left Panels: Example traces of GABAA current response by electrical stimulation in mPFC pyramidal neurons in control (top panel, black) and in scPCP (bottom, red). Bipolar electrode was put in layer 1, 100-200 um apart from recording site within layer2/3 with presence of 3 mM kynurenic acid to block any glutamatergic synaptic currents. The response was evoked by the same size of single stimulus (0.2-1 mA, 0.2 ms) at five different holding voltages (−100, −80, −60, −40, −20 mV) for each neuron. For each voltage, a neuron was tested multiple times and those 5-10 traces tested at the same voltage were averaged later for peak analysis. […] Right Panels: Example GABAA reversal potential (EGABA) of a neuron in control (top panel, black) and in scPCP (bottom, red) calculated from traces shown in (A). For the individual neuron, the peak size of current responses was measured (maximal current peak if the evoked response is positive while minimal current peak if negative) and plotted by holding voltages. […] Dotted gray lines to present average resting potentials for each group, which were measured by whole-cell patch recordings from separated neuron groups (each n>7). […] Dotted gray lines represent the resting potentials, which were measured by whole-cell patch recordings in different sets of experiment (each n>7). […]
# PCP treated mouse = assay: Social interaction in the PCP treated mouse; type: in vivo
# CaMK2A+/- mice [2] = assay: Y maze in CaMK2A+/- mouse model; type: in vivo; conditions: 0.1 mg/kg, ip, p<0.001
# Excerpt: (§1) (See Yamasaki et al., “Alpha-CaMKII deficiency causes immature dentate gyrus, a novel candidate endophenotype of psychiatric disorders,” Molecular Brain, 1 (2008) 6; and McCarthy et al., “Microduplications of 16p11.2 are associated with schizophrenia,” Nat. Gene., 41 (2009) 1223-1227; respectively). Both models are relevant to human conditions. CaMK2A loss causes cognitive dysfunction and has been implication in psychiatric disorders including schizophrenia. (See Yamasaki et al., “Alpha-CaMKII deficiency causes immature dentate gyrus, a novel candidate endophenotype of psychiatric disorders,” Molecular Brain, 1 (2008) 6; Kool et al., “CAMK2-dependent Signaling in Neurons is Essential for Survival,” J. Neuroscience: the official journal of the Society for Neuroscience, 39 (2019) 5424-5439; and Papaleo et al., “Mouse models of genetic effects on cognition: relevance to schizophrenia,” Neuropharmacology, 62 (2012) 1204-1220). […] (See Niarchou et al., “Psychiatric disorders in children with 16p11.2 deletion and duplication,” Translational psychiatry, 9 (2019) 8). […] (FIG. 9).
# 16p11.2DUP mice [3] = assay: Y maze in 16p11.2 duplication mouse model; type: in vivo; conditions: 0.1 mg/kg, ip, p<0.001
# Excerpt: as §1
# [4] = test system: PCP model of cognitive impairment; assay: Prevention of development of cognitive impairment, given prior to PCP treatment; type: in vivo, mice; conditions: given prior to one week's treatment with PCP
# Excerpt: Bumetanide prevented the development of cognitive impairment when give prior to one weeks treatment with PCP. This is evidence that bumetanide could prevent the onset of cognitive impairment in schizophrenia and bipolar disorder. […] The discovery of these synergistic actions which will have value in the treatment of many neuropsychiatric disorders. Neurosteroids such as allopregnanolone is a GABA A agonist which could be used clinically with bumetanide to treat post-partum depression, other forms of depression.
# scPCP mice = assay: Novel object recognition (NOR) test in subchronic phencyclidine (scPCP) mice; type: in vivo, C57BL/6J mice; conditions: for Discrimination index, novel object recognition (rescue of scPCP-induced NOR deficit): male C57BL/6J mice
# Procedure: FIG. 7. Bumetanide treatment rescues the cognitive impairment in scPCP mice. Discrimination index calculated from novel object recognition tests. […] 10 mice were measured for each experimental group.
# FIG. 8. Bumetanide rescues Novel Object Recognition task in female scPCP mice. […] Data are from 9 mice per group. One-way ANOVA followed by post-hoc bonferroni correction was done where significance was observed. p<0.01. (Additional data not shown).
# To begin filling this gap, here we took advantage of the subchronic phencyclidine (scPCP) treatment, which is a well-established established rodent model of cognitive deficits in schizophrenia (Jentsch and Roth, 1999; Steeds et al. 2015) and performed patch clamp recordings from pyramidal neurons in acute slices of the IL cortex (ILC) and PL cortex (PLC). (FIG. 1).
# Routine for mPFC recording. 3 week-old mice were injected with saline (vehicle) or PCP (0.1 mg/kg) two times a day for 7 consecutive days and rested for another 7 days without injections. They were then sacrificed for recordings within 7 days.
# CaMK2A+/- mice [5] = type: in vivo; conditions: for Discrimination index, rescue of NOR deficit, single agent at the dose used in the combination: CaMKIIα+/- mice, agent alone
# Excerpt: as §1
# 16p11.2DUP mice [6] = assay: Novel object recognition in 16p11.2 duplication mouse model; type: in vivo; conditions: 0.1 mg/kg, ip, p<0.001
# Excerpt: as §1
# scPCP-treated mice = assay: PCP- and amphetamine-induced increase in locomotor activity in scPCP-treated mice; type: in vivo; conditions: bumetanide 0.3 mg/ml, icy
# Excerpt: This can be interpreted as evidence for ability to treat delusions and hallucinations in psychotic disorders, including schizophrenia, major depression, bipolar disorder, various dementias, including vascular dementia and other neurodegenerative disorders. These finding have immediate translational value, as bumetanide is an already approved drug that could be promptly used to improve cognition in patients with cognitive impairment, psychosis, or negative symptoms in the disorders cited above.
# [7] = test system: scPCP-treated mice subjected to chronic unpredictable stress; assay: Memory deficit in scPCP-treated mice subjected to chronic unpredictable stress (CUS); type: in vivo; conditions: chronic unpredictable stress 21 days, 0.1 mg/kg
# Excerpt: Bumetanide acts by blocking the NKCC1 cation-chloride cotransporter and causes the reversal potential of the GABAA-mediated current to become more hyperpolarized (thus the inhibitory effect becomes stronger). […] Most importantly, in-vivo administration of bumetanide rescues cognitive function in PCP mice and also prevents enduring deficit of cognitive function.
structure (smiles),measurement,setting,value
CCCCNc1cc(C(=O)O)cc(S(N)(=O)=O)c1Oc1ccccc1 [bumetanide],GABAA reversal potential in layer 2/3 and layer 5 of ILC,[1],normalizes
same,Social interaction,PCP treated mouse,effective
same,Y maze performance,CaMK2A+/- mice [2],completely rescued
same,Y maze performance,16p11.2DUP mice [3],completely rescued
same,Development of cognitive impairment,[4],prevented
same,Performance in the novel object recognition task,"scPCP mice; PCP-treated mice, oral administration of a single dose (FIG. 7)",completely rescues
same,Novel Object Recognition test (rescue of scPCP-induced deficits),"scPCP mice; female C57BL/6J mice, single dose IP, p<0.01",significantly rescued
same,"Discrimination index, novel object recognition (rescue of scPCP-induced NOR deficit)","scPCP mice; 0.1 mg/kg, ip",completely rescues
same,"Discrimination index, novel object recognition (rescue of scPCP-induced NOR deficit)","scPCP mice; 0.3 mg/ml, icy",completely rescues
same,NOR performance,"CaMK2A+/- mice [5]; CaMK2A+/- mice, 0.1 mg/kg, ip, p<0.001",completely rescued
same,"Discrimination index, rescue of NOR deficit, single agent at the dose used in the combination",CaMK2A+/- mice [5],sub-effective
same,NOR performance,16p11.2DUP mice [6],completely rescued
same,PCP-induced increase in locomotor activity,scPCP-treated mice; PCP 10 mg/kg,significantly blocked
same,Amphetamine-induced increase in locomotor activity,scPCP-treated mice; amphetamine 2.5 mg/kg,significantly blocked
same,Memory deficit,[7],significantly rescued
Cc1nc2n(c(=O)c1CCN1CCC(c3noc4cc(F)ccc34)CC1)CCCC2 [risperidone],"Discrimination index, rescue of NOR deficit, single agent at the dose used in the combination",CaMK2A+/- mice [5],ineffective
